Consider five compounds from patent US6509367B1 (priority 2001, dated 2003).

Read-outs that look alike come from different tables or passages of the source.

For one assay, the target named is CB1 receptor (Rattus norvegicus, UniProt P20272). The experiment in a line: biochemical. The assay is classed as binding. To be noted: for Ki: 1 nM [3H] CP 55,940, rat whole brain P2 membranes, 30° C. for 1 hr; for CB1 binding affinity, fold decrease on shortening the n-pentyl amide: compared to O-1269. How it is done:
(§1) Male ICR mice (25-32 g), purchased from Harlan (Dublin, Va.), were housed in groups of five. All animals were kept in a temperature-controlled (20-22° C.) environment with a 12-hour light-dark cycle (lights on at 7 a.m.). Separate mice were used for testing each drug dose in the in vivo behavioral procedures. The mice were maintained on a […] light: dark cycle, and received food and water ad libitum. Brain tissue for binding studies was obtained from male Sprague-Dawley rats (150-200 g) purchased from Harlan Laboratories (Dublin, Va.).
All assays, as described briefly below, were performed in triplicate, and the results represent the combined data from three to six individual experiments. Following decapitation and rapid removal of the brain, whole brain was homogenized and centrifuged. The resulting pellet was termed P1. The supernatant was saved and combined with the two subsequent supernatants obtained from washing of the P1 pellet. The combined supernatant fractions were centrifuged, resulting in the P2 pellet. After further incubation and centrifuging, this pellet was resuspended in assay buffer to a protein concentration of approximately 2 mg/ml. The membrane preparation was quickly frozen in a bath solution of dry ice and 2-methylbutane (Sigma Chemical Co., St. Louis, Mo.), then stored at −80° C. for no more than 2 weeks. […] Binding was initiated by the addition of 150 μg of P2 membrane to test tubes containing 1 nM of [3H] […] Following incubation at 30° C. for 1 hr, binding was terminated by addition of ice-cold buffer and vacuum filtration through pretreated filters in a 12-well sampling manifold (Millipore, Bedford, Mass.). After washing, filters were placed into plastic scintillation vials (Packard, Downer Grove, Ill.) and shaken. The quantity of radioactivity present was determined by liquid scintillation spectrometry.

In assay [1] the test system is mice. The experiment in a line: Spontaneous (locomotor) activity in mice, compound alone (agonism test). The assay is classed as in vivo. Conditions: for ED50 / SA: > dose, 50% activity not achieved at this highest dose tested: mice, i.v.; for Max stim of spontaneous locomotor activity, Compound Alone (in words): at the dose(s) [mg/kg] given in parentheses in the cell; for Max stim of spontaneous locomotor activity, Compound Alone: at 1 mg/kg i.v. How it is done:
as §1
(§2) Measurement of spontaneous activity in mice occurred in standard activity chambers interfaced with a Digiscan Animal Activity Monitor (Omnitech Electronics, Inc., Columbus, Ohio). A standard tail-flick apparatus (described by Dewey et al., 1970) and a digital thermometer (Fisher Scientific, Pittsburgh, Pa.) were used to measure antinociception and rectal temperature, respectively.
(§3) All drugs were administered to the mice intravenously (i.v.) in the tail vein at a volume of 0.1 ml/10 g.
(§4) Maximum latency of 10 sec was used.

Assay [2] relates to mice. Nature of the assay: Tail-flick antinociception in mice, compound alone (agonism test). The assay is classed as in vivo. To be noted: for ED50: Mus musculus, iv. How it is done:
as §1, §2, §3, §4

Assay [3] concerns mice. Nature of the assay: Rectal temperature (hypothermia) in mice, compound alone (agonism test). The assay is classed as in vivo. To be noted: for ED50: Mus musculus, iv. How it is done:
as §1, §2, §3, §4

The test system of assay [4] is mice. Nature of the assay: Spontaneous activity in mice, compound in combination with 3 mg/kg Δ^9-THC (antagonism test). The assay is classed as in vivo. Conditions: for SA: maximum % antagonism of 3 mg/kg Δ^9-THC: analog 10 min before Δ^9-THC. How it is done: as §1, §2, §3, §4
The mark [5] stands for this setting: Mus musculus, iv, 95% confidence limits in parentheses, * = estimated ED50, dose-effect curve not linear, read-out: SA (suppression of spontaneous activity) ED50.
The mark [6] stands for this setting: 20 min, i.v., 20 min post-injection, 95% confidence limits in parentheses, * = estimated ED50, dose-effect curve not linear, read-out: TF (tail flick, % MPE) ED50.
The mark [7] stands for this setting: 0.5 h, i.v., 30 min post-injection, 95% confidence limits in parentheses, read-out: RT (rectal temperature) ED50.

Chain of CB1 receptor (P20272 whole entry): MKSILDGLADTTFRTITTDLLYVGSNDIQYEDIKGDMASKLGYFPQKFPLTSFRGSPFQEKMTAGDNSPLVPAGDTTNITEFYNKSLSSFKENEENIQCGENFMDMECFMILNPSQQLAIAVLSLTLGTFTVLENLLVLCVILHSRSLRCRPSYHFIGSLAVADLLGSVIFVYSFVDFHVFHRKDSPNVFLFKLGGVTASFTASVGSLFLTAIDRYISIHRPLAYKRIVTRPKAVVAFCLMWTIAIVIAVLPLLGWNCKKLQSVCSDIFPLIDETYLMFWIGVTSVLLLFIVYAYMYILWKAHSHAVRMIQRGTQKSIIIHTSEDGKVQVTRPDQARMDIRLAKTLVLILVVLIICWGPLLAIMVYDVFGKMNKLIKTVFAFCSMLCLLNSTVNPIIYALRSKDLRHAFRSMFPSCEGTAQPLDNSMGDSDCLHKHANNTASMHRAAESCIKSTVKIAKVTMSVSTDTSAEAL

One may read the Ki as the equilibrium dissociation constant of an inhibitor or competing ligand from its target. Take `Cc1c(C(=O)NCCF)nn(-c2ccc(Cl)cc2Cl)c1-c1ccc(Cl)cc1` [Compound O-1398, N-(2-fluoroethyl)-5-(4-chlorophenyl)-1-(2,4-dichlorophenyl)-4-methyl-1H-pyrazol-3-carboxamide]: the Ki on CB1 receptor (read-out: Ki) was 852 ± 175 nM. The “CB1 binding affinity, fold decrease on shortening the n-pentyl amide” value at CB1 receptor stood at 27 fold. Also, the “CB1 binding affinity, further fold reduction” value at CB1 receptor (compared to the n-propyl compound O-1399) worked out at 5 fold. For the same compound, the inhibition in vivo at 10 mg/kg in the assay with mice [1] (Mus musculus, iv, at 10 mg/kg i.v., read-out: Max % inhibit of spontaneous locomotor activity, Compound Alone) stood at 97%. Besides, the results for the ED50 in the assay on mice [1] (setting [5]), in the assay on mice [2] (setting [6]) and with mice [3] (setting [7]) were 7 µmol/kg, 13 µmol/kg and 8 µmol/kg, respectively. Besides, the “Max stim of spontaneous locomotor activity, Compound Alone (in words)” value in the assay on mice [1] was “None (3, 10 & 30)”.
At CB1 receptor (Ki (nM)), `CCCNC(=O)c1nn(-c2ccc(Cl)cc2Cl)c(-c2ccc(Cl)cc2)c1C` [Compound O-1399, N-(n-propyl)-5-(4-chlorophenyl)-1-(2,4-dichlorophenyl)-4-methyl-1H-pyrazole-3-carboxamide] came in with an inhibition constant Ki of 167 ± 32 nM. The “CB1 binding affinity, fold decrease on shortening the n-pentyl amide” value at CB1 receptor was 5 fold. For the same compound, in the assay with mice [1] (Mus musculus, iv, at 30 mg/kg i.v., read-out: Max % inhibit of spontaneous locomotor activity, Compound Alone), the inhibition in vivo at 30 mg/kg was 100%. The ED50 is 9 µmol/kg with mice [1] (setting [5]), 24 µmol/kg with mice [2] (setting [6]) and 10 µmol/kg with mice [3] (setting [7]). Further, the “Max stim of spontaneous locomotor activity, Compound Alone (in words)” value in the assay with mice [1] is listed as “None (3, 10 & 30)”.
With `CCCCC(C)c1c(C)c(C(=O)NN2CCCCC2)nn1-c1ccc(Cl)cc1Cl` (stereo not drawn) [Compound O-1559], the Ki on CB1 receptor (read-out: Ki) came to 233 nM. In addition, the change in vivo at 30 mg/kg with mice [1] (Mus musculus, iv, at 30 mg/kg i.v., read-out: Max stim of spontaneous locomotor activity, Compound Alone) was determined as 118%. Also, the ED50 is greater than 30 mg/kg in the assay on mice [1] (Mus musculus, iv, read-out: SA: > dose, 50% activity not achieved at this highest dose tested); greater than 30 mg/kg in the assay on mice [2] (read-out: TF: > dose, 50% activity not achieved at this highest dose tested); greater than 30 mg/kg in the assay on mice [3] (read-out: RT: > dose, 50% activity not achieved at this highest dose tested). For the same compound, the “Max % inhibit of spontaneous locomotor activity, Compound Alone (in words: stimulation instead of inhibition)” value in the assay with mice [1] (doses in mg/kg) was “stim at 3, 10 & 30”.
On to `CCCCCc1ccc(-c2c(-c3ccc(Cl)cc3Cl)nn(C(=O)NN3CCCCC3)c2Br)cc1` [Compound O-1691, N-(N-Piperdyl)-3-(2,4-dichlrophenyl)-4-(4′-pentylphenyl)-5-bromopyrazole-carboxamide], for which the Ki on CB1 receptor (read-out: Ki) was 1.5 ± 0.22 nM. Further, in the assay with mice [1], the “Max stim of spontaneous locomotor activity, Compound Alone” value is reported as 66% (1) and the “SA: > dose, 50% activity not achieved at this highest dose tested” value was greater than 30 mg/kg. In addition, in the assay on mice [1] (at 3 mg/kg i.v.), the “Max % inhibit of spontaneous locomotor activity, Compound Alone” value is given as 15% (3). For the same compound, in the assay on mice [2] (i.v.), the “TF: > dose, 50% activity not achieved at this highest dose tested” value is reported as greater than 30 mg/kg. Further, the “RT: > dose, 50% activity not achieved at this highest dose tested” value with mice [3] (i.v.) is reported as greater than 30 mg/kg. The “Max % inhibit of spontaneous locomotor activity, Compound with 3 mg/kg Δ^9-THC” value in the assay with mice [4] (at 0.1 mg/kg i.v.) is recorded as 91% (0.1). Further, the “SA: maximum % antagonism of 3 mg/kg Δ^9-THC” value in the assay on mice [4] (at 0.3 mg/kg i.v.) was 6% (0.3). Besides, the “Max stim of spontaneous locomotor activity, Compound with 3 mg/kg Δ^9-THC” value in the assay with mice [4] (at 3 mg/kg i.v.) is reported as 150% (3).
“N-(N-Piperdyl)-3-(2,4-dichlrophenyl)-4-(4″-pentylphenyl)-5-iodopyrazole-carboxamide [Compound O-1704]”: the Ki at CB1 receptor (read-out: Ki) was determined as 2.2 nM. For the same compound, in the assay with mice [1], the “Max stim of spontaneous locomotor activity, Compound Alone” value is 57% (1) and the “SA: > dose, 50% activity not achieved at this highest dose tested” value is recorded as greater than 30 mg/kg. For the same compound, the “Max % inhibit of spontaneous locomotor activity, Compound Alone” value in the assay with mice [1] (at 30 mg/kg i.v.) is 19% (30). The “TF: > dose, 50% activity not achieved at this highest dose tested” value in the assay with mice [2] (i.v.) is reported as greater than 30 mg/kg. Also, the “RT: > dose, 50% activity not achieved at this highest dose tested” value in the assay on mice [3] (i.v.) is on record as greater than 30 mg/kg. Further, in the assay with mice [4] (at 0.3 mg/kg i.v.), the “Max % inhibit of spontaneous locomotor activity, Compound with 3 mg/kg Δ^9-THC” value is on record as 85% (0.3). Also, the “SA: maximum % antagonism of 3 mg/kg Δ^9-THC” value in the assay on mice [4] (at 3 mg/kg i.v.) was 65% (3). In the assay on mice [4] (at 10 mg/kg i.v.), the “Max stim of spontaneous locomotor activity, Compound with 3 mg/kg Δ^9-THC” value is on record as 49% (10).
